Active and inactive are the calls of the source. The calls are words filed in the database; no cut-off is given here.
Tests used:
[1] = target: T1, Toll-like receptor 7 (Macaca fascicularis) (UniProt B3Y652); test: In vivo target occupancy at TLR7 in cynomolgus monkey assessed as fold increase in GBP1 mRNA expression in nasal scrape at 3 ng/kg administered intranasally incubated for 24 hrs by TaqMan analysis (reference value: 2.4); type: functional
T1 sequence (whole entry): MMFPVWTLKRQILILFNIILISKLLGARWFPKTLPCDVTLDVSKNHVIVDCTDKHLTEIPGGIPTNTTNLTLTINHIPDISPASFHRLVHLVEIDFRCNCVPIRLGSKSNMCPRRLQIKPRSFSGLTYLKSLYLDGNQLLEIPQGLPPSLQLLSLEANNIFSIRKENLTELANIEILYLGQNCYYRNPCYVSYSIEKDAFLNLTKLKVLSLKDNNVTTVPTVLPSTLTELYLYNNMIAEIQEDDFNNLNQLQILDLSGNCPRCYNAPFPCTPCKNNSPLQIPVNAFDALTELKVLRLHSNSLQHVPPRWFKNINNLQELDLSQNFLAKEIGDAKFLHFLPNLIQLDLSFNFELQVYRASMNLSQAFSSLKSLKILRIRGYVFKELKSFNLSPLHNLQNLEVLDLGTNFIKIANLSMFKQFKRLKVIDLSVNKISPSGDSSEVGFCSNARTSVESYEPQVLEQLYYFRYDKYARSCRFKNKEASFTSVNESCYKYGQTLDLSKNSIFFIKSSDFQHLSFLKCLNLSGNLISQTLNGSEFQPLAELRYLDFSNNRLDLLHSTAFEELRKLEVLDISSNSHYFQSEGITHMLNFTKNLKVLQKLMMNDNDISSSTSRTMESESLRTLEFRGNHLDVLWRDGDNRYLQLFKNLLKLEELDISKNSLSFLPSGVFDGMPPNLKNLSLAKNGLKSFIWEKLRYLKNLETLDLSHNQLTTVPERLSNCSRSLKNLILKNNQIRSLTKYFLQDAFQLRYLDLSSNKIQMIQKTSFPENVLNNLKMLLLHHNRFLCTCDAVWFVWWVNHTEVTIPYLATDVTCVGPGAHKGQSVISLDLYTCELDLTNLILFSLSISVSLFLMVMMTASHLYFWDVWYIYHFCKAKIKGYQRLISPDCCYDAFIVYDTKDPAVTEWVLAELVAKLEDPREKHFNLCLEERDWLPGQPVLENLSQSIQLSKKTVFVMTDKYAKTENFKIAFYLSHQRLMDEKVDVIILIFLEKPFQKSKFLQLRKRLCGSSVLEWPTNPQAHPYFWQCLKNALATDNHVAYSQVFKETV

[2] = Selectivity ratio of pEC50 for agonist activity at TLR7 in human whole blood to pEC50 for agonist activity at TLR7 in BALB/c mouse splenocytes; type: cell-based
[3] = target: T1, Toll-like receptor 7 (Macaca fascicularis); test: In vivo target occupancy at TLR7 in cynomolgus monkey assessed as fold increase in OAS3 mRNA expression in nasal scrape at 30 ng/kg administered intranasally incubated for 24 hrs by TaqMan analysis (reference value: 0.9); type: functional
[4] = target: T1, Toll-like receptor 7 (Macaca fascicularis); test: In vivo target occupancy at TLR7 in cynomolgus monkey assessed as fold increase in OAS2 mRNA expression in nasal scrape at 3 ng/kg administered intranasally incubated for 24 hrs by TaqMan analysis (reference value: 1); type: functional
[5] = Oral bioavailability in rat; type: ADME, organism-based; conditions: in vivo
[6] = Toxicity in female rat assessed as NOAEL after 14 days; conditions: in vivo, time 14 day
[7] = system: PBMC; test: Immunomodulatory activity in human PBMC assessed as reduction in house dust mite induced IL-13 level after 6 days; type: functional, cell-based; conditions: dose 0.01-10000 nM, time 6.0 day
[8] = Systemic clearance in mouse; type: ADME, organism-based; conditions: in vivo
[9] = target: T2, Toll-like receptor 9 (Homo sapiens) (UniProt Q9NR96); test: Agonist activity at TLR9 (unknown origin) expressed in human HEK cells upto 50 uM by luciferase reporter assay; type: cell-based
T2 sequence (whole entry): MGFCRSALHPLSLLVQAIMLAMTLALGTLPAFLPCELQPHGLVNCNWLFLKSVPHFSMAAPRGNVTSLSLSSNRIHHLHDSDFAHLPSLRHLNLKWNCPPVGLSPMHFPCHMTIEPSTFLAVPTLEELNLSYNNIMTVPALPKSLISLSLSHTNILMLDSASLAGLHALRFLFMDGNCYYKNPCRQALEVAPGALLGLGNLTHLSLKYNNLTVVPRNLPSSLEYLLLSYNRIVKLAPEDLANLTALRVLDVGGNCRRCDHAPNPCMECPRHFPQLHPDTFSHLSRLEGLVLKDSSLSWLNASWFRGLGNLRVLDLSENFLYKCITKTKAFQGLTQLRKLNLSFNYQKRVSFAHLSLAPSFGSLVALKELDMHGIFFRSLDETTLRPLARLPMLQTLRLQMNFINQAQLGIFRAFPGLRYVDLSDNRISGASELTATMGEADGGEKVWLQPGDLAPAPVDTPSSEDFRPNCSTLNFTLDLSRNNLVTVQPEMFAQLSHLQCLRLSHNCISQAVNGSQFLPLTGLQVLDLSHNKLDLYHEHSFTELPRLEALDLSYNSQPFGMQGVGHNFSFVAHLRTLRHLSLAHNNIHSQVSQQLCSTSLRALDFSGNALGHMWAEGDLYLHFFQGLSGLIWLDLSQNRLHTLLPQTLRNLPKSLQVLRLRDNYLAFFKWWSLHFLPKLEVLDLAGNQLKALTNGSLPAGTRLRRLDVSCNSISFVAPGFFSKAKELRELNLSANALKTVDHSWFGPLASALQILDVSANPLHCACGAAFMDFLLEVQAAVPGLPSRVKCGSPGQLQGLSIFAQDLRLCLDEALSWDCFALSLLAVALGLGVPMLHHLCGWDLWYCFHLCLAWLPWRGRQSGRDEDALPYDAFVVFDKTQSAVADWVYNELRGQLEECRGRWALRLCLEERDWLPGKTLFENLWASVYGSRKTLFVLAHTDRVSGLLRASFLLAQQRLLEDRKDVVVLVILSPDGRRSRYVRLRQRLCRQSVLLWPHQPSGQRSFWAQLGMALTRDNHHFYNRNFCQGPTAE

**Q.** With `CCC[C@H](C)Oc1nc(N)c2[nH]c(=O)n(CCCCCN3CCCCC3)c2n1` [GSK-2245035] as the molecule, how does the fold change (FC) [1] read?
**A.** 68.5

**Q.** And the Selectivity ratio [2]?
**A.** 10

**Q.** And the fold change (FC) [3]?
**A.** 101

**Q.** What about the fold change (FC) [4] of the same molecule?
**A.** 128

**Q.** And the bioavailability [5]?
**A.** 1%

**Q.** And the NOAEL at 336 h [6]?
**A.** 0.772 mg/kg/day

**Q.** And the Activity [7]?
**A.** Dose-Dependent Effect

**Q.** What about the clearance [8] of the same molecule?
**A.** 107 mL/min/kg

**Q.** What about the Activity [9] of the same molecule?
**A.** inactive

From ChEMBL document CHEMBL5252515, “Discovery of 6-Amino-2-{[(1S)-1-methylbutyl]oxy}-9-[5-(1-piperidinyl)pentyl]-7,9-dihydro-8H-purin-8-one (GSK2245035), a Highly Potent and Selective Intranasal Toll-Like Receptor 7 Agonist for the Treatment of Asthma” (J Med Chem, 2016)
